Source: patent publication US12522583B2, “Benzimidazole derivatives and aza-benzimidazole derivatives as Janus kinase 2 inhibitors and uses thereof” (Dana-Farber Cancer Institute, Inc., priority 2018, dated 2026)

Assays:
Assay in all cases: KINOMEscan
Format in all cases: binding
[1] = biological target: ABL1(F317I)-phosphorylated (Homo sapiens (Human), UniProt P00519, F317I); settings: read-out: percent control
Source text: (§1) Example 2. In Vitro Kinase Selectivity Profiling of the Compounds of the Present Disclosure

[2] = biological target: ABL1(H396P)-phosphorylated (Homo sapiens (Human), UniProt P00519, H396P); settings: read-out: percent control
Source text: as §1

[3] = biological target: ABL1-nonphosphorylated (Homo sapiens (Human), UniProt P00519); settings: read-out: percent control
Source text: as §1

[4] = biological target: CAMK1B (Homo sapiens (Human), UniProt Q6P2M8); settings: read-out: percent control
Source text: as §1

[5] = biological target: CAMK1G (Homo sapiens (Human), UniProt Q96NX5); settings: read-out: percent control
Source text: as §1

[6] = biological target: CAMK2A (Homo sapiens (Human), UniProt Q9UQM7); settings: read-out: percent control
Source text: as §1

[7] = biological target: CDK9 (Homo sapiens (Human), UniProt P50750); settings: read-out: percent control
Chain of CDK9 (P50750 whole entry): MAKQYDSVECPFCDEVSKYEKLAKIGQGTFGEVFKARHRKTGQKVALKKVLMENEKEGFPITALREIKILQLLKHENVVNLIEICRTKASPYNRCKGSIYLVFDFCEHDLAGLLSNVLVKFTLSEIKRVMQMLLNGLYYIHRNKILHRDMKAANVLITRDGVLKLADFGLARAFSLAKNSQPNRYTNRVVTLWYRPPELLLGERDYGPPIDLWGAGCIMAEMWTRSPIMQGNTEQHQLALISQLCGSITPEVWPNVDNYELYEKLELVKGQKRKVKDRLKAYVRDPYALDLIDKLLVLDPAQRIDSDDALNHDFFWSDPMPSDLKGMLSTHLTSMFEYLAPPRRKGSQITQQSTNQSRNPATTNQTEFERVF
Source text: as §1

[8] = biological target: CSNK1A1L (Homo sapiens (Human), UniProt Q8N752); settings: read-out: percent control
Source text: as §1

[9] = biological target: DAPK1 (Homo sapiens (Human), UniProt P53355); settings: read-out: percent control
Source text: as §1

[10] = biological target: EGFR(L861Q) (Homo sapiens (Human), UniProt P00533, L861Q); settings: read-out: percent control
Chain of EGFR(L861Q) (P00533 25-1210 L861Q): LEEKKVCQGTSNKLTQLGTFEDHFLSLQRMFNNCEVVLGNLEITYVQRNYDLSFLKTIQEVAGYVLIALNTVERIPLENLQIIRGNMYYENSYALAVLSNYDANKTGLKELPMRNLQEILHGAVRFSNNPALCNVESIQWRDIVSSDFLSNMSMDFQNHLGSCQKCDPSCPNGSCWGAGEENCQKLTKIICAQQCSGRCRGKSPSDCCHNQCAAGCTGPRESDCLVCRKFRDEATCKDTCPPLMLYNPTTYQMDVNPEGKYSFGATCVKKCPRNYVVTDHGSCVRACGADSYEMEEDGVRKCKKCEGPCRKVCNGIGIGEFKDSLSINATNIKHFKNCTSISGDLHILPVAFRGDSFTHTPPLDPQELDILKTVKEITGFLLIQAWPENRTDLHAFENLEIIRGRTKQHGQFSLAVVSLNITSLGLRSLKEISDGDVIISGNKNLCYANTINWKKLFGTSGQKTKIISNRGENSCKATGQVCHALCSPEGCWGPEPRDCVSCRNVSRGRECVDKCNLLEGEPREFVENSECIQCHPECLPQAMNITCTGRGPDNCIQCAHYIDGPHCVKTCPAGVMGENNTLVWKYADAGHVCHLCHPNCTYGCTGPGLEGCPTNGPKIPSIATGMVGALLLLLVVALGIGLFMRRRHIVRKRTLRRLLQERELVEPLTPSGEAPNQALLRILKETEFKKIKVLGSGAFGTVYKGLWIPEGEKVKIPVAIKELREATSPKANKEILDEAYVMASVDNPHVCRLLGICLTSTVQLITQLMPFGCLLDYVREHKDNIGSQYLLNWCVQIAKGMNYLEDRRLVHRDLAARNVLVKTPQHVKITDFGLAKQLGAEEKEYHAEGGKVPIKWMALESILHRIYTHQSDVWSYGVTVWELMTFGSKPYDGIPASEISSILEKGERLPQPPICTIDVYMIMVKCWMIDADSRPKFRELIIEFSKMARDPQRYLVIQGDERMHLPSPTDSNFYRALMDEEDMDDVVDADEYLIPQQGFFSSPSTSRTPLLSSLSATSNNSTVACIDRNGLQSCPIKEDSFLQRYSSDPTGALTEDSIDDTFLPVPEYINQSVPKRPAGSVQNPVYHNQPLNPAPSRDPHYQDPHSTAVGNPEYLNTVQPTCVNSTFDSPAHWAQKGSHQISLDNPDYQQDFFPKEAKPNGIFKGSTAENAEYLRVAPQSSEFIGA
Source text: as §1

[11] = biological target: EPHA7 (Homo sapiens (Human), UniProt Q15375); settings: read-out: percent control
Source text: as §1

[12] = biological target: EPHA8 (Homo sapiens (Human), UniProt P29322); settings: read-out: percent control
Source text: as §1

[13] = biological target: EPHB1 (Homo sapiens (Human), UniProt P54762); settings: read-out: percent control
Source text: as §1

[14] = biological target: ERK1 (Homo sapiens (Human), UniProt P27361); settings: read-out: percent control
Source text: as §1

[15] = biological target: FGFR3(G697C) (Homo sapiens (Human), UniProt P22607, G697C); settings: read-out: percent control
Source text: as §1

[16] = system: FLT3(ITD); settings: 1 μM
Source text: as §1

[17] = biological target: IKK-epsilon (Homo sapiens (Human), UniProt Q14164); settings: read-out: percent control
Chain of IKK-epsilon (Q14164 whole entry): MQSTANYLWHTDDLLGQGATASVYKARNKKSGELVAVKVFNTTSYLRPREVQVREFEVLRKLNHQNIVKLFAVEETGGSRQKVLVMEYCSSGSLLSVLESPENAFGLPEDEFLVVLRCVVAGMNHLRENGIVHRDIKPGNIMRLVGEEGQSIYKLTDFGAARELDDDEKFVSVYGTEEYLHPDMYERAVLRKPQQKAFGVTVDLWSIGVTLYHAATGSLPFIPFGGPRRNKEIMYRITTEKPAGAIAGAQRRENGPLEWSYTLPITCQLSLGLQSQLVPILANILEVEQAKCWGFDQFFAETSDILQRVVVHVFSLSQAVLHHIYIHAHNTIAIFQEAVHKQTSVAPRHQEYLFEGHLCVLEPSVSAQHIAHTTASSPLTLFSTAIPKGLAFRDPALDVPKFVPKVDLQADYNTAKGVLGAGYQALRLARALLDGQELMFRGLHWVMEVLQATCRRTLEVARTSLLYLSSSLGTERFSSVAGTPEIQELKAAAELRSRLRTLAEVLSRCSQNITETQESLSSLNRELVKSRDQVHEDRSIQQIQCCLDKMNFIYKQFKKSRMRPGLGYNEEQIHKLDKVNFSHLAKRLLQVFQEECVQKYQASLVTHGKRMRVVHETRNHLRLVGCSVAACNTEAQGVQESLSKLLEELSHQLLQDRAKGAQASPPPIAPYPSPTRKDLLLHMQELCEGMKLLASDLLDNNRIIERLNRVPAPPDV
Source text: as §1

[18] = biological target: INSRR (Homo sapiens (Human), UniProt P14616); settings: read-out: percent control
Source text: as §1

[19] = biological target: IRAK4 (Homo sapiens (Human), UniProt Q9NWZ3); settings: read-out: percent control
Source text: as §1

[20] = biological target: LIMK2 (Homo sapiens (Human), UniProt P53671); settings: read-out: percent control
Source text: as §1

[21] = biological target: LKB1 (Homo sapiens (Human), UniProt Q15831); settings: read-out: percent control
Source text: as §1

[22] = biological target: MAP3K3 (Homo sapiens (Human), UniProt Q99759); settings: read-out: percent control
Chain of MAP3K3 (Q99759 whole entry): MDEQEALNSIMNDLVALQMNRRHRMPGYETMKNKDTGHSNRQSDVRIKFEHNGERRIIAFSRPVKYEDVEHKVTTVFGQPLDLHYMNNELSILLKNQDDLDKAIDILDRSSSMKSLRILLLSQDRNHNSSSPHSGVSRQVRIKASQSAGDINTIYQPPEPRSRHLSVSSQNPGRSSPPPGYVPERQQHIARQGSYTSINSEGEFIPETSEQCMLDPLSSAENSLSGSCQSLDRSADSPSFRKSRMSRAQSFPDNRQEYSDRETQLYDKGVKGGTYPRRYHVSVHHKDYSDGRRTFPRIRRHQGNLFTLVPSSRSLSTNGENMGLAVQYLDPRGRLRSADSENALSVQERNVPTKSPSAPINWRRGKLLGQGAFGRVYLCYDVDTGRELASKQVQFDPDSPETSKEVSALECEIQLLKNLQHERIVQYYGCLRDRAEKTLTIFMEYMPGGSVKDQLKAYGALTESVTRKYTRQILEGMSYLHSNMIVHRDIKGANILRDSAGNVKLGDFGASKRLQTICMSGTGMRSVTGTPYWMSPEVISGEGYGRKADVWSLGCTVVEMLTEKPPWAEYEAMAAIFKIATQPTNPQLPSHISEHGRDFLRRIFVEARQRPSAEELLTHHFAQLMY
Source text: as §1

[23] = biological target: MARK2 (Homo sapiens (Human), UniProt Q7KZI7); settings: read-out: percent control
Source text: as §1

[24] = biological target: MET (Homo sapiens (Human), UniProt P08581); settings: read-out: percent control
Source text: as §1

[25] = biological target: MLK3 (Homo sapiens (Human), UniProt Q16584); settings: read-out: percent control
Chain of MLK3 (Q16584 whole entry): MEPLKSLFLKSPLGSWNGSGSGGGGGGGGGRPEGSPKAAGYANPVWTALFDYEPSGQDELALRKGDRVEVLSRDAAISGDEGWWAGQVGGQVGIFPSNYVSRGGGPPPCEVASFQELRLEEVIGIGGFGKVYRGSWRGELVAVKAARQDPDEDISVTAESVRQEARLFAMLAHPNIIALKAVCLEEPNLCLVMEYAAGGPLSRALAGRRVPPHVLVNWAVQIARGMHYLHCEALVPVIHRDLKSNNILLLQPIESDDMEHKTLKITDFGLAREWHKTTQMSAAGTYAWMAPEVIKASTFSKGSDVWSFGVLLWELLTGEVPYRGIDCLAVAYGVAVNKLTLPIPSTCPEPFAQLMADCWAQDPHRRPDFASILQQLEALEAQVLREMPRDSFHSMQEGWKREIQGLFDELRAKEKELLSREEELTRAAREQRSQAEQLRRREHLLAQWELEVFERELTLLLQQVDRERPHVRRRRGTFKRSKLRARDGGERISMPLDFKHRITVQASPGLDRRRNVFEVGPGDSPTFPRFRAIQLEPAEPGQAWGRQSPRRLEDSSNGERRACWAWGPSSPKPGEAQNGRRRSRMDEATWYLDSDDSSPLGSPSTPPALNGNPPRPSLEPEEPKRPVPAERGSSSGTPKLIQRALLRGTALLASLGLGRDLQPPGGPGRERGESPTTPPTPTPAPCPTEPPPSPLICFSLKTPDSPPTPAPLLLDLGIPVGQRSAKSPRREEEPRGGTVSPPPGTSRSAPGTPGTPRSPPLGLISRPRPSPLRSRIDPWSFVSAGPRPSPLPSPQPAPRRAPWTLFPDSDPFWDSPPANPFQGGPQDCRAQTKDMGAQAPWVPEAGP
Source text: as §1

[26] = biological target: MYLK2 (Homo sapiens (Human), UniProt Q9H1R3); settings: read-out: percent control
Source text: as §1

[27] = biological target: NEK10 (Homo sapiens (Human), UniProt Q6ZWH5); settings: read-out: percent control
Source text: as §1

[28] = biological target: PHKG1 (Homo sapiens (Human), UniProt Q16816); settings: read-out: percent control
Source text: as §1

[29] = biological target: PKAC-alpha (Homo sapiens (Human), UniProt P17612); settings: read-out: percent control
Source text: as §1

[30] = biological target: PLK3 (Homo sapiens (Human), UniProt Q9H4B4); settings: read-out: percent control
Source text: as §1

[31] = biological target: RET(M918T) (Homo sapiens (Human), UniProt P07949, M918T); settings: read-out: percent control
Source text: as §1

[32] = biological target: ROCK1 (Homo sapiens (Human), UniProt Q13464); settings: read-out: percent control
Chain of ROCK1 (Q13464 whole entry): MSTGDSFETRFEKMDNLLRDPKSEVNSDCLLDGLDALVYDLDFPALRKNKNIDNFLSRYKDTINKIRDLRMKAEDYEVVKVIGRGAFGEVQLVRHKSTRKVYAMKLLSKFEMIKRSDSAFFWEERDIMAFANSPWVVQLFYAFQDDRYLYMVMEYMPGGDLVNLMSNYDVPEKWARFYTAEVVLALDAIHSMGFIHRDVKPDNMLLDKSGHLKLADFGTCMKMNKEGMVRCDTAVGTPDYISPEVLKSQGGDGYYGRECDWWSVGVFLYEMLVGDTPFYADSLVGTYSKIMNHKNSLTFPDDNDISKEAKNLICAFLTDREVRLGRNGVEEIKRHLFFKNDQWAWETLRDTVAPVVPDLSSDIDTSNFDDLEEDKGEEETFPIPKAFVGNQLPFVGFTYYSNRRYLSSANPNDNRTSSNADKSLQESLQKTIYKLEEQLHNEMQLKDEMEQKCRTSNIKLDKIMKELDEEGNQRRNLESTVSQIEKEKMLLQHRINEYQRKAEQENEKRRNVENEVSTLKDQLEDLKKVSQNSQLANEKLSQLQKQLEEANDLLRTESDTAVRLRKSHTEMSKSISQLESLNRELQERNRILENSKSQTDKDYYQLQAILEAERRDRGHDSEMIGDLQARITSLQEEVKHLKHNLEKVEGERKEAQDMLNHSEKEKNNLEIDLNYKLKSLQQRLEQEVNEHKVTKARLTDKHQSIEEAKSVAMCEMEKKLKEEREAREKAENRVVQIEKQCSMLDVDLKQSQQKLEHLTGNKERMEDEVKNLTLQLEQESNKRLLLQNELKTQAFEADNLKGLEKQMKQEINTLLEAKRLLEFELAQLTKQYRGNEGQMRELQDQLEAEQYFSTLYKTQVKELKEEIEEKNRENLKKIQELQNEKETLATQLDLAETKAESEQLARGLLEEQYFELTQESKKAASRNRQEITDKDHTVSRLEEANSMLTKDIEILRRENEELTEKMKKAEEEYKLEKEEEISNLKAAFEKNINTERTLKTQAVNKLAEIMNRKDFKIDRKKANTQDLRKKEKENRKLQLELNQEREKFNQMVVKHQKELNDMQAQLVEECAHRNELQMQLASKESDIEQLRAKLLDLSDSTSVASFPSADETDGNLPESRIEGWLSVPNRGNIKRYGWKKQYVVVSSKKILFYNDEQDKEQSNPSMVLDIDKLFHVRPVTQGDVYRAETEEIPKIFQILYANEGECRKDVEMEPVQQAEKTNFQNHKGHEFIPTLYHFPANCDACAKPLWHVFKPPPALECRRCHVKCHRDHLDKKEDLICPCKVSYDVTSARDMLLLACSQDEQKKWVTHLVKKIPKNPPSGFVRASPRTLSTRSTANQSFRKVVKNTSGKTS
Source text: as §1

[33] = biological target: RPS6KA4(Kin.Dom.1-terminal) (Homo sapiens (Human), UniProt O75676); settings: read-out: percent control
Source text: as §1

[34] = biological target: RPS6KA5(Kin.Dom.2-C-terminal) (Homo sapiens (Human), UniProt O75582); settings: read-out: percent control
Source text: as §1

[35] = biological target: SIK (Homo sapiens (Human), UniProt P57059); settings: read-out: percent control
Source text: as §1

[36] = biological target: STK16 (Homo sapiens (Human), UniProt O75716); settings: read-out: percent control
Source text: as §1

[37] = biological target: SgK110 (Homo sapiens (Human), UniProt P0C264); settings: read-out: percent control
Source text: as §1

[38] = biological target: TIE2 (Homo sapiens (Human), UniProt Q02763); settings: read-out: percent control
Source text: as §1

[39] = biological target: TRKC (Homo sapiens (Human), UniProt Q16288); settings: read-out: percent control
Source text: as §1

[40] = biological target: TXK (Homo sapiens (Human), UniProt P42681); settings: read-out: percent control
Source text: as §1

Row | SMILES | remaining binding at 1 µM [1] [%] | remaining binding at 1 µM [2] [%] | remaining binding at 1 µM [3] [%] | remaining binding at 1 µM [4] [%] | remaining binding at 1 µM [5] [%] | remaining binding at 1 µM [6] [%] | remaining binding at 1 µM [7] [%] | remaining binding at 1 µM [8] [%] | remaining binding at 1 µM [9] [%] | remaining binding at 1 µM [10] [%] | remaining binding at 1 µM [11] [%] | remaining binding at 1 µM [12] [%] | remaining binding at 1 µM [13] [%] | remaining binding at 1 µM [14] [%] | remaining binding at 1 µM [15] [%] | percent control [16] [%] | remaining binding at 1 µM [17] [%] | remaining binding at 1 µM [18] [%] | remaining binding at 1 µM [19] [%] | remaining binding at 1 µM [20] [%] | other results
1 | CCN1CCN(Cc2ccc(Nc3nc4ccc(Oc5ccnc(NC(C)=O)c5)cc4n3C)cc2C(F)(F)F)CC1 [Compound I-2] | 82 | 45 | 0.3 | 50 | 100 | 79 | 100 | 86 | 87 | 98 | 93 | 43 | 94 | 100 | 98 | 24 | 91 | 5.3 | 81 | 100 | remaining binding at 1 µM [21]: 40%; remaining binding at 1 µM [22]: 16%; remaining binding at 1 µM [23]: 100%; remaining binding at 1 µM [24]: 43%; remaining binding at 1 µM [25]: 100%; remaining binding at 1 µM [26]: 100%; remaining binding at 1 µM [27]: 100%; remaining binding at 1 µM [28]: 94%; remaining binding at 1 µM [29]: 65%; remaining binding at 1 µM [30]: 81%; remaining binding at 1 µM [31]: 0.8%; remaining binding at 1 µM [32]: 100%; remaining binding at 1 µM [33]: 100%; remaining binding at 1 µM [34]: 90%; remaining binding at 1 µM [35]: 95%; remaining binding at 1 µM [36]: 59%; remaining binding at 1 µM [37]: 86%; remaining binding at 1 µM [38]: 81%; remaining binding at 1 µM [39]: 44%; remaining binding at 1 µM [40]: 100%
2 | CCN1CCN(Cc2ccc(Nc3nc4ccc(Oc5ccnc(NC(C)=O)c5)c(C)c4n3C)cc2C(F)(F)F)CC1 [Compound I-6, N-(4-(2-(4-((4-ethylpiperazin-1-yl)methyl)-3-(trifluoromethyl)phenylamino)-1,7-dimethyl-1H-benzo[d]imidazol-6-yloxy)pyridin-2-yl)acetamide] | 34 | 30 | 0.05 | 43 | 99 | 100 | 96 | 100 | 99 | 100 | 99 | 2.5 | 95 | 100 | 66 | 11 | 92 | 5.8 | 98 | 88 | remaining binding at 1 µM [21]: 91%; remaining binding at 1 µM [22]: 0.95%; remaining binding at 1 µM [23]: 100%; remaining binding at 1 µM [24]: 40%; remaining binding at 1 µM [25]: 95%; remaining binding at 1 µM [26]: 92%; remaining binding at 1 µM [27]: 79%; remaining binding at 1 µM [28]: 91%; remaining binding at 1 µM [29]: 57%; remaining binding at 1 µM [30]: 93%; remaining binding at 1 µM [31]: 0.15%; remaining binding at 1 µM [32]: 83%; remaining binding at 1 µM [33]: 93%; remaining binding at 1 µM [34]: 100%; remaining binding at 1 µM [35]: 98%; remaining binding at 1 µM [36]: 82%; remaining binding at 1 µM [37]: 100%; remaining binding at 1 µM [38]: 36%; remaining binding at 1 µM [39]: 3.4%; remaining binding at 1 µM [40]: 84%
